Residues, ends and D or L forms follow the SMILES beside them.

This is an account of results in PMC7473970, “Preformulation Studies of a Stable PTEN-PDZ Lipopeptide Able to Cross an In Vitro Blood-Brain-Barrier Model as a Potential Therapy for Alzheimer’s Disease” (Pharmaceutical Research, 2020).

Series [1] in a line: Permeability across in vitro 2D human blood-brain barrier model. It counts as in vitro ADME. The settings on record: read-out: Papp0-4h, Experiment 2.
Series [2] in a line: In vitro stability in 50% liver homogenate. In kind it is in vitro ADME, mouse. The following applies: 37°C, HPLC-UV 220 nm, one phase decay, least square fit, n = 3. As to the method:
(§1) The samples were analyzed at 40°C on a Phenomenex Lichrosorb RP8 C8 column (4.0 mm × 250 mm, 5 μm), using the gradient elution method on an Agilent HPLC system (Agilent Technologies, Cheadle, UK) equipped with an 1100 series degasser, quaternary pump, autosampler, and column heater, and attached to an Agilent 1200 series PDA detector and a 1250 series fluorescent detector. The flow rate was set at 1.2 mL min^-1, and the injection volume was set at 40 μL, while detection was performed at 220 nm. The mobile phase was a mixture of mobile phase A (0.1% TFA in water) and phase B (0.08% TFA in acetonitrile), and in the first 5 min, the mobile phase was an 8:2 ratio of A:B (v/v) and from 5 to 15 min the percentage of B was raised from 8:2 to 1:9 (v/v). Linear calibration curves were constructed for both peptides between 0.1–100 μg.mL^−1. The retention time for the human Lau–PTEN-PDZ, mouse Lau–PTEN-PDZ, human Myr–PTEN-PDZ, and mouse Myr–PTEN-PDZ was 12.03, 11.60, 13.68, and 13.91, respectively.
The liver and brain of the mice were excised from […] CD-1 male mice (7 weeks-old: Charles River Laboratories) sacrificed with CO2, and the tissue was frozen immediately with liquid nitrogen prior to storage at −80°C. The liver and brain tissue were thawed and homogenized on ice in PBS (2 mL/g of tissue) using a glass 3 mL tissue homogenizer (20 strokes per sample), and the liver and brain homogenates were centrifuged (Heraeus Multifuge 3sf, Fisher Scientific, Basingstoke, UK) at 4300 g for 60 min at 4°C and at 3000 g for 20 min at 4°C, respectively. The supernatant was stored at −80°C, diluted 1:1 (v/v) with PBS (1x, pH 7.4), and used in stability studies. Peptides stocks (5 mM in DMSO) were prepared and maintained at −20°C prior to performing stability studies. These stock solutions (120 μL) were added to the diluted pre-warmed (37°C) liver or brain homogenate (50% v/v, 1080 μL) with agitation (100 rpm: Grant Aqua Waterbath), and samples (80 μL) were taken at 0, 5, 10, 15, 30, 45, 60, 90, 120, 180, 240, 360 and 1440 min, and diluted with ice-cold acetonitrile (80 μL). Samples were vortexed and left at −80°C at least overnight to allow for maximum protein precipitation, the samples were vortexed again for 15 min, centrifuged and the supernatant was analyzed by HPLC as described above.
The total protein concentration in the homogenates was determined using the Bradford protein assay ([7],[15]) and BSA as a standard. Ten stock solutions of BSA were prepared in PBS between 0.1–1 mg mL^−1, and 40 μL of each of the diluted stocks were added to 1.2 mL of Bradford reagent and incubated at room temperature for 5 min. The absorbance was recorded at 595 nm using a Multiskan GO spectrophotometer and the SkanIt software (Thermo Scientific, Paisley, UK). A linear calibration curve was obtained in this range that was used to extrapolate the protein content of 1:100 v/v stock solutions of 50% mouse plasma, liver, and brain homogenates diluted in PBS.

In another series the test system is hCMEC/D3 cells. As to the kind of experiment: MTT metabolic activity assay in hCMEC/D3 cells. It counts as cell-based, human. The following applies: 24 h versus 4 h exposure. As to the method: HCMEC/D3 (passage number 32–40) cultured in EBM-2 (Lonza) supplemented with the EGM-2 Bullet Kit™ (Lonza), and 2% v/v human serum (Sigma H3667, Batch: SLBW2276) were used to assess the cytotoxicity of lipidized peptides. The cells were subjected to routine mycoplasma testing and authenticated in house. The cells were seeded at 46,875 cells/cm^2 in complete medium, and allowed to attach overnight, refreshing the medium to treat the cells with peptide solutions. The peptide solutions were prepared from […] DMSO stocks at a final concentration between 1 and 400 μM in complete medium to ensure a final DMSO concentration of 0.5%, and 200 μL of the diluted stock was added to each well. The metabolic activity of the cells was measured after 4 and 24 h using the MTT (3-(4,5)-dimethylthiazol-2-yl)-2,5-diphenyltetrazolium bromide) assay. At the time points specified, the MTT solution was added to each well (20 μL at 5 mg.mL^−1 in PBS), and the cells were incubated for 4 h at 37°C. Subsequently, DMSO (100 μL) was added to dissolve the formazan crystals, and the absorbance was measured at 570 and 690 nm on a Multiskan Go microplate spectrophotometer, analyzing the data using the SkanIt software (Thermo Scientific, Paisley, UK). […]
IC50 values were calculated using Graphpad Prism 8.0 (San Diego, USA) and fitted using a non-linear regression model ([Inhibitor] vs. response (three parameters)).

Series [3] can be described thus: In vitro stability in 50% v/v mouse plasma. The settings on record: 37°C, HPLC-UV 220 nm, one phase decay, least square fit, n = 3. In kind it is in vitro ADME. As to the method:
CD-1 male mice (7 weeks old: Charles River Laboratories) were sacrificed with CO2, and blood was collected in K3E EDTA spray-coated vacutainers and kept on ice prior to centrifugation at 3000 rpm for 15 min at 4°C (Heraeus Multifuge 3sf). Mouse plasma samples were stored at −80°C before use in stability studies. Study was approved by the University of Portsmouth Animal Welfare and Ethical Review Body (UoP AWERB body, 817).
For testing, the plasma was diluted (1:1) in PBS without phenol and pre-warmed to 37°C. Peptides stocks (5 mM in DMSO) were prepared and maintained at −20°C before performing the stability studies. Peptide stock solutions (120 μL) were added to pre-warmed diluted plasma (50% v/v, 1080 μL) and maintained at 37°C with agitation (100 rpm: Grant Aqua Waterbath, Royston, UK). Samples (80 μL) were taken at 0, 3, 6,9, 15, 30, 45, 60, 90, 120, 180, 240, 360 and 1440 min, diluted with ice-cold acetonitrile (80 μL), vortexed and left in −80°C at least overnight to favor maximal protein precipitation. The samples were then vortexed again for 15 min (SciQuip microplate shaker, Shropshire, UK), centrifuged in a Thermo Sci Jouan B4i Centrifuge (Hemel Hampstead, UK) and the supernatant was transferred to an HPLC vial (200 μL).
as §1

Where [4] appears, read: 50% w/v mouse liver homogenate in PBS pH 7.4.

For the compound `CCCCCCCCCCCCCC(=O)N[C@@H](CCC(N)=O)C(=O)N[C@@H](Cc1c[nH]cn1)C(=O)N[C@@H](CO)C(=O)N[C@@H](CCC(N)=O)C(=O)N[C@H](C(=O)N[C@H](C(=O)N[C@@H](CCCCN)C(=O)N[C@H](C(=O)O)C(C)C)[C@@H](C)O)[C@@H](C)CC` [Mouse Myr-PTEN-PDZ] (HELM PEPTIDE1{[CCCCCCCCCCCCCC(=O)[*:2]].Q.H.S.Q.I.T.K.V}$$$$V2.0), in series [1], the Papp A→B at 100 μM came out at 2.63 ± 0.08 ×10⁻⁶ cm/s. In addition, the k in series [2] (50% w/v CD-1 mouse liver homogenate in PBS pH 7.4, 120 μL of 5 mM DMSO stock in 1080 μL, 100 rpm, 0-1440 min) stood at 0.51 h⁻¹; in series [3] (50% v/v CD-1 mouse plasma (K3 EDTA) in PBS, 120 μL of 5 mM DMSO stock in 1080 μL, 100 rpm, 0-1440 min), 0.80 h⁻¹. Moreover, the “t1/2 (h)” value is 1.36 h in series [2] (setting [4]) and 0.87 h in series [3] (50% v/v mouse plasma in PBS). Also, the “t1/2 (min)” value is recorded as 81.66 min in series [2] (setting [4]) and 52.16 min in series [3] (50% v/v mouse plasma in PBS). In the series with hCMEC/D3 cells, the “Recovery of cell metabolic activity after 24 h” value is on record as “did not allow the cells to recover after 24 h”.
